Assay results reported in ChEMBL document CHEMBL1155200, “Structure-activity relationships of the 1-amino-3-(1H-indol-1-yl)-3-phenylpropan-2-ol series of monoamine reuptake inhibitors” (Bioorg Med Chem Lett, 2009).

Key:
Homo sapiens = organism: Homo sapiens; assay: Selectivity ratio, IC50 for human SERT to IC50 for human NET
[1] = target: Sodium-dependent noradrenaline transporter (Homo sapiens, UniProt P23975)
Description: Inhibition of human NET expressed in MDCK-Net6 cells

[2] = target: Sodium-dependent serotonin transporter (Homo sapiens, UniProt P31645); type: cell-based, JAR
Chain of Sodium-dependent serotonin transporter (P31645 whole entry): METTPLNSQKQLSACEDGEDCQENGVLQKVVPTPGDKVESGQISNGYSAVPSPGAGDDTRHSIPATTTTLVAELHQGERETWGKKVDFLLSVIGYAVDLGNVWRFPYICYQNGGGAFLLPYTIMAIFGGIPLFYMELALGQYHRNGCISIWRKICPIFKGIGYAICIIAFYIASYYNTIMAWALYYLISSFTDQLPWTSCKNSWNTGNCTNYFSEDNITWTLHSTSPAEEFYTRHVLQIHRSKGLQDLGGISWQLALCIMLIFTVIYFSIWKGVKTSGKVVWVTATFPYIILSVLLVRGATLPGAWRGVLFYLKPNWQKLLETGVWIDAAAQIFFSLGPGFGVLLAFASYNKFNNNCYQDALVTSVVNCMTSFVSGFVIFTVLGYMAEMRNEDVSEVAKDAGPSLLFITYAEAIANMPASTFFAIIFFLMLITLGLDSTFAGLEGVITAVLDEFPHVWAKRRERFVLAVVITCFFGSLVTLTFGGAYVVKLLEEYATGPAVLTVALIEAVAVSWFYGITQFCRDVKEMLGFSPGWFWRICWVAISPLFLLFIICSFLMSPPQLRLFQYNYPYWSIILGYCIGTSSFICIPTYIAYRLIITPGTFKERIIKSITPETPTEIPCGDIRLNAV
Description: Inhibition of human SERT expressed in JAR cells

[3] = target: Sodium-dependent dopamine transporter (Homo sapiens) (UniProt Q01959); assay: Displacement of [3H]WIN-35428 from human DAT expressed in CHO cells; type: cell-based; conditions: concentration not given here
Chain of Sodium-dependent dopamine transporter (Homo sapiens) (Q01959 whole entry): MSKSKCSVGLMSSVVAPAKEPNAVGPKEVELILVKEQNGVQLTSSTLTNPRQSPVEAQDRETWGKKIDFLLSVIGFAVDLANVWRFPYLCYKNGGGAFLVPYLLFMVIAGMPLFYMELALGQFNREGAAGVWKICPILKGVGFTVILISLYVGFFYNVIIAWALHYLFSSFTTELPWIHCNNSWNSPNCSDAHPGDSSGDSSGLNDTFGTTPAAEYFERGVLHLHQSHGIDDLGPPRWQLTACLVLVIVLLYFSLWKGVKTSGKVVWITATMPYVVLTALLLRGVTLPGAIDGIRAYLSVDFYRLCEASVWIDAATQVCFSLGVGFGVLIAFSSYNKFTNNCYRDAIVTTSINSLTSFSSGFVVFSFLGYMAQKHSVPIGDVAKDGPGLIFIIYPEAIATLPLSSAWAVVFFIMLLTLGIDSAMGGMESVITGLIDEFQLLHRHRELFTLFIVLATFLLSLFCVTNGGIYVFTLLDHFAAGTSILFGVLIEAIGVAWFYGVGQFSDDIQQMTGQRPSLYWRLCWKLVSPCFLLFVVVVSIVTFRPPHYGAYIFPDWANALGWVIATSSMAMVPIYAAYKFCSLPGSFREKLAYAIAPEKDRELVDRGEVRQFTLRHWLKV

[4] = Ratio of AUC in brain to AUC in plasma in rat at 10 mg/kg, po and 2 mg/kg, iv; type: ADME, organism-based; conditions: read-out: Ratio AUC
Rattus norvegicus [5] = assay: Effect on temperature homeostasis in ovariectomized-induced thermoregulatory dysfunction in telemetric Sprague-Dawley rat model assessed as duration of onset activity in tail skin temperature reduction at 10 mg/kg, po; type: functional
Rattus norvegicus [6] = assay: Effect on temperature homeostasis in ovariectomized-induced thermoregulatory dysfunction telemetric Sprague-Dawley rat model assessed as mean reduction in tail skin temperature at 30 mg/kg, po; type: functional
Rattus norvegicus [7] = assay: Effect on temperature homeostasis in ovariectomized-induced thermoregulatory dysfunction telemetric Sprague-Dawley rat model assessed as maximum reduction in tail skin temperature at 30 mg/kg, po; type: functional
[8] = Plasma concentration in rat at 10 mg/kg, po after 8 hrs; type: ADME, organism-based; set-up: dose 10 mg/kg, route oral
Rattus norvegicus [9] = assay: Effect on temperature homeostasis in ovariectomized-induced thermoregulatory dysfunction in telemetric Sprague-Dawley rat model assessed as duration of onset activity in tail skin temperature reduction at 30 mg/kg, po; type: functional
Rattus norvegicus [10] = assay: Effect on temperature homeostasis in ovariectomized-induced thermoregulatory dysfunction telemetric Sprague-Dawley rat model assessed as maximum reduction in tail skin temperature at 10 mg/kg, po; type: functional
[11] = Cmax in rat at 10 mg/kg, po after 8 hrs; type: ADME, organism-based; set-up: dose 10 mg/kg, route oral; conditions: in vivo
Rattus norvegicus [12] = assay: Effect on temperature homeostasis in ovariectomized-induced thermoregulatory dysfunction telemetric Sprague-Dawley rat model assessed as duration of tail skin temperature reduction at 30 mg/kg, po; type: functional
Rattus norvegicus [13] = assay: Effect on temperature homeostasis in ovariectomized-induced thermoregulatory dysfunction telemetric Sprague-Dawley rat model assessed as mean reduction in tail skin temperature at 10 mg/kg, po; type: functional
Rattus norvegicus [14] = assay: Effect on temperature homeostasis in ovariectomized-induced thermoregulatory dysfunction in telemetric Sprague-Dawley rat model assessed as duration of tail skin temperature reduction at 10 mg/kg, po; type: functional
[15] = Oral bioavailability in rat at 10 mg/kg; type: ADME, organism-based; conditions: in vivo

Chain of Sodium-dependent noradrenaline transporter (P23975 whole entry): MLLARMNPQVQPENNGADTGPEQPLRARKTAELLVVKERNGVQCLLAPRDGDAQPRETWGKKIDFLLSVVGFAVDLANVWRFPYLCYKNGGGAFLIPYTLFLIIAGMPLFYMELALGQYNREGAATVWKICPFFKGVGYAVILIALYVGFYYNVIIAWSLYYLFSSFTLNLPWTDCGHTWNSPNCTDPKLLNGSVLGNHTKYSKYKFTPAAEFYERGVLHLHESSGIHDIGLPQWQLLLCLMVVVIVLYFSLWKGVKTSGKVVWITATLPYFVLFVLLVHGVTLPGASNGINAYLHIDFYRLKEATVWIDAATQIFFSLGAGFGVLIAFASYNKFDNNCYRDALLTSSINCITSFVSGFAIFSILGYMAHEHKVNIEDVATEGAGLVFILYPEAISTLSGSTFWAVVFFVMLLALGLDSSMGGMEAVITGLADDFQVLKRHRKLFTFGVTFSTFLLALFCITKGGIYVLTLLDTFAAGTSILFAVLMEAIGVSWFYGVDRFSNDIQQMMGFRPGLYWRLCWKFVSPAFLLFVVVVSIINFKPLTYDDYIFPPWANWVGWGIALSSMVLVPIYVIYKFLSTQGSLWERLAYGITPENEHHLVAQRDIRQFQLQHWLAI

| Structure (SMILES) | Ratio IC50 (Homo sapiens) | IC50 [1] | IC50 [2] | inhibition [3] | also measured |
| --- | --- | --- | --- | --- | --- |
| CNC[C@@H](O)[C@H](c1cccc(F)c1)n1ccc2cccc(Br)c21 | 5 | 21 nM | 113 nM | 0% |  |
| CNC[C@@H](O)[C@H](c1cccc(F)c1)n1ccc2ccc(F)cc21 | 31 | 20 nM | 626 nM | 15% |  |
| CNC[C@@H](O)[C@H](c1cccc(F)c1)n1ccc2ccc(Br)cc21 | 8 | 124 nM | 1000 nM | 12% |  |
| CNC[C@@H](O)[C@H](c1cccc(F)c1)n1ccc2c(Br)cccc21 | 4 | 52 nM | 207 nM | 24% |  |
| CNC[C@@H](O)[C@H](c1cccc(F)c1)n1ccc2cc(Br)ccc21 | 1 | 60 nM | 52 nM | 10% |  |
| CNC[C@@H](O)[C@H](c1cccc(F)c1)n1ccc2cccc(F)c21 | 25 | 7 nM | 175 nM | 8% |  |
| CCc1cn([C@@H](c2cccc(F)c2)[C@H](O)CNC)c2ccccc12 | 83 | 10 nM | 834 nM | 0% |  |
| CNC[C@@H](O)[C@H](c1cccc(F)c1)n1ccc2cc(F)ccc21 | 4 | 22 nM | 78 nM | 9% |  |
| CNC[C@@H](O)[C@H](c1cccc(F)c1)n1cc(C)c2ccccc21 | 86 | 4 nM | 343 nM | 8% | Kp [4]: 3.5; Activity (Rattus norvegicus [5]): 1 h; Activity (Rattus norvegicus [6]): -3.8 °C; Activity (Rattus norvegicus [7]): -7 °C; concentration at 8 h [8]: 40 nM; Activity (Rattus norvegicus [9]): 0.5 h; Activity (Rattus norvegicus [10]): -2.3 °C; Cmax [11]: 87 ng/mL; Activity (Rattus norvegicus [12]): 10.5 h; Activity (Rattus norvegicus [13]): -1.5 °C; Time (Rattus norvegicus [14]): 5 h; bioavailability [15]: 6% |
| CNC[C@@H](O)[C@H](c1cccc(F)c1)n1ccc2c(C)cccc21 | 15 | 15 nM | 228 nM | 4% |  |
| CNCC[C@H](c1cccc(F)c1)n1ccc2ccccc21 | 0.2 | 91 nM | 14 nM | 52% |  |
| CNC[C@@H](O)[C@H](c1cccc(F)c1)n1ccc2c(F)cccc21 | 26 | 16 nM | 417 nM | 3% |  |
| CNC[C@@H](O)[C@H](c1cccc(F)c1)n1ccc2cccc(C)c21 | 29 | 18 nM | 527 nM | 7% |  |

Continued, in another order:

| Ratio IC50 (Homo sapiens) | IC50 [1] | IC50 [2] | inhibition [3] | Structure (SMILES) | also measured |
| --- | --- | --- | --- | --- | --- |
| 8 | 111 nM | 882 nM | 0% | CNC[C@@H](O)[C@H](c1cccc(OC)c1)n1ccc2ccccc21 |  |
| 2 | 21 nM | 48 nM | 0% | CNC[C@@H](O)[C@H](c1cccc(F)c1)n1ccc2cccc(Cl)c21 |  |
| 1 | 527 nM | 748 nM | 16% | CNC[C@@H](O)[C@H](c1ccc(Cl)cc1)n1ccc2ccccc21 |  |
| 1 | 232 nM | 266 nM | 11% | CNC[C@@H](O)[C@H](c1ccccc1C)n1ccc2ccccc21 |  |
| 8 | 49 nM | 377 nM | 8% | CNC[C@@H](O)[C@H](c1cccc(C)c1)n1ccc2ccccc21 |  |
| 4 | 304 nM | 1330 nM | 7% | CNC[C@@H](O)[C@H](c1ccccc1Cl)n1ccc2ccccc21 |  |
| 5 | 92 nM | 473 nM | 4% | CNC[C@@H](O)[C@H](c1ccccc1F)n1ccc2ccccc21 |  |
| 3 | 117 nM | 398 nM | 0% | CNC[C@@H](O)[C@H](c1ccc(C)cc1)n1ccc2ccccc21 |  |
| 1 | 60 nM | 79 nM | 6% | CNC[C@@H](O)[C@H](c1cccc(F)c1)n1ccc2cc(Cl)ccc21 |  |
| 16 | 84 nM | 1370 nM | 11% | CNC[C@@H](O)[C@H](c1ccc(F)cc1)n1ccc2ccccc21 |  |
| 9 | 92 nM | 865 nM | 9% | CNC[C@@H](O)[C@H](c1cccc(F)c1)n1ccc2ccc(Cl)cc21 |  |
| 2 | 21 nM | 48 nM | 0% | CNC[C@@H](O)[C@H](c1cccc(F)c1)n1ccc2cc(C)ccc21 |  |
| 34 | 16 nM | 554 nM | 20% | CNC[C@@H](O)[C@H](c1cccc(Cl)c1)n1ccc2ccccc21 |  |
| 39 | 14 nM | 547 nM | 13% | CNC[C@@H](O)[C@H](c1cccc(Br)c1)n1ccc2ccccc21 |  |
| 14 | 34 nM | 491 nM | 44% | CNCC[C@H](c1ccccc1)n1ccc2ccccc21 |  |
| 40 | 11 nM | 441 nM | 23% | CNC[C@@H](O)[C@H](c1cccc(F)c1)n1ccc2ccccc21 |  |
| 3 | 64 nM | 221 nM | 12% | CNC[C@@H](O)[C@H](c1cccc(F)c1)n1ccc2c(Cl)cccc21 |  |
| 40 | 54 nM | 2180 nM | 14% | CNC[C@@H](O)[C@H](c1cccc(C(F)(F)F)c1)n1ccc2ccccc21 |  |
